Experiments:
physchem = conditions: buffer, pH 6.5
in vitro = conditions: human, cryopreserved hepatocytes

| Compound | chromatographic logD (physchem) | hepatocyte CLint at 1.5 h, 1 µM (in vitro) |
| --- | --- | --- |
| CCN(CC)c1ccc(-c2cc(-c3ccc(C(=O)O)cc3)ccc2OCCCO)cc1 | 1.9 | 11 µL/min/1e6 cells |
| CCN(CC)c1ccc(-c2cc(-c3ccc(C(=O)O)cc3)ccc2OCCCCO)cc1C(C)(C)C | 4.3 | 33 µL/min/1e6 cells |
| CC(C)(C)c1cc(-c2cc(-c3ccc(C(=O)O)cc3)ccc2OCCO)ccc1N1CCCC1 [TRIFAROTENE] | 3.5 | 72 µL/min/1e6 cells |
| O=C(O)c1ccc(-c2ccc(OCCCCO)c(-c3ccc(N4CCCC4)c(C(F)(F)F)c3)c2)cc1 | 2.8 | 22 µL/min/1e6 cells |

— ChEMBL document CHEMBL4190387 (Bioorg Med Chem Lett, 2018)
